This passage reports inhibition in vivo results from ChEMBL document CHEMBL1148800, “Novel 2,7-dialkyl-substituted 5(S)-amino-4(S)-hydroxy-8-phenyl-octanecarboxamide transition state peptidomimetics are potent and orally active inhibitors of human renin” (J Med Chem, 2007).

Assay [1] is filed under the species Callithrix jacchus. Put plainly: animal or person. The note with it: Plasma, po, 6 h, read-out: Inhibition.
Description: Inhibition of plasma renin activity in sodium depleted marmoset at 10 mg/kg, po after 6 hrs
Assay [2] is filed under the species Callithrix jacchus. The assay can be described thus: animal or person. The note with it: Plasma, po, 6 h, read-out: Inhibition. The source holds these as a separate data set.
Description: Inhibition of plasma renin activity in sodium depleted marmoset at 3 mg/kg, po after 6 hrs

For the compound `COCCCOc1cc(C[C@@H](C[C@H](N)[C@@H](O)C[C@@H](C)C(=O)NCC(C)(C)N2CCOCC2)C(C)C)ccc1OC`, the inhibition in vivo at 10 mg/kg in the assay listed under Callithrix jacchus [1] was 88%.

On to `COCCCOc1cc(C[C@@H](C[C@H](N)[C@@H](O)C[C@@H](C)C(=O)NCCN2CCSCC2)C(C)C)ccc1OC`, for which the inhibition in vivo at 3 mg/kg in the assay listed under Callithrix jacchus [2] is 28%. Consider `COCCCOc1cc(C[C@@H](C[C@H](N)[C@@H](O)C[C@@H](C)C(=O)NCCCC(N)=O)C(C)C)ccc1OC`, for which the inhibition in vivo at 3 mg/kg in the assay listed under Callithrix jacchus [2] was determined as 95%.
